Results: the NIST ThermoML archive (doi:10.1021/je400157s)

Legend:
[1] = Liquid; for mass density: 101.33 kPa, Vibrating tube method; for speed of sound: Pulse-echo method
[2] = molar heat capacity at constant pressure; conditions: 101.33 kPa, Liquid, Small sample (50 mg) DSC

CCCCCCCCCC(=O)OCC [ethyl decanoate]
Conditions	mass density, [1] [kg/m3]	molar heat capacity at constant pressure, [2] [J/K/mol]
283.15 K	872.11	–
286.16 K	–	397.73
288.15 K	868.06	398.53
293.15 K	864	400.88
298.15 K	859.94	403.34
303.15 K	855.88	–
303.16 K	–	405.67
308.14 K	851.82	–
308.16 K	–	408.17
313.14 K	847.75	–
313.16 K	–	410.93
318.15 K	843.68	413.64
323.15 K	839.6	416.52
328.15 K	835.52	–
328.16 K	–	419.55
333.14 K	–	422.31
333.15 K	831.43	–
338.14 K	827.33	–
338.15 K	–	425.46
341.11 K	–	427.36
343.15 K	823.23	–
348.15 K	819.11	–
353.14 K	814.99	–

[1]
Conditions	speed of sound [m/s]
292.9 K, 30390 kPa	1453.5
292.9 K, 45590 kPa	1511.7
292.9 K, 60790 kPa	1565.9
292.9 K, 75990 kPa	1616.7
292.9 K, 101320 kPa	1693.9
292.91 K, 15200 kPa	1389.4
292.91 K, 91180 kPa	1664.3
292.92 K, 100 kPa	1313.8
298.17 K, 30390 kPa	1436.1
298.17 K, 45590 kPa	1494.9
298.17 K, 60790 kPa	1549.4
298.17 K, 75990 kPa	1601.3
298.17 K, 91180 kPa	1648.6
298.17 K, 101320 kPa	1678.8
298.18 K, 100 kPa	1293.9
298.18 K, 15200 kPa	1370.6
303.16 K, 100 kPa	1275.2
303.16 K, 30390 kPa	1419.1
303.16 K, 45590 kPa	1479.6
303.16 K, 60790 kPa	1534.7
303.16 K, 75990 kPa	1586.9
303.16 K, 91180 kPa	1635
303.16 K, 101320 kPa	1665.9
303.17 K, 15200 kPa	1353.1
308.13 K, 45590 kPa	1464.6
308.13 K, 75990 kPa	1572.1
308.13 K, 101320 kPa	1652.9
308.14 K, 100 kPa	1256.8
308.14 K, 15200 kPa	1335.4
308.14 K, 30390 kPa	1403
308.14 K, 60790 kPa	1520.1
308.14 K, 91180 kPa	1621.8
313.09 K, 45590 kPa	1449.8
313.09 K, 75990 kPa	1559.2
313.09 K, 91180 kPa	1608.6
313.09 K, 101320 kPa	1639
313.1 K, 30390 kPa	1387.5
313.1 K, 60790 kPa	1506.2
313.11 K, 100 kPa	1238.5
313.11 K, 15200 kPa	1318.7
318.26 K, 75990 kPa	1544.9
318.26 K, 91180 kPa	1594.7
318.26 K, 101320 kPa	1626.5
318.27 K, 15200 kPa	1301.6
318.27 K, 30390 kPa	1371.7
318.27 K, 45590 kPa	1434.9
318.27 K, 60790 kPa	1491.6
318.28 K, 100 kPa	1219.7

CCCCCCCC(=O)OCC [ethyl octanoate]
Conditions	mass density, [1] [kg/m3]	molar heat capacity at constant pressure, [2] [J/K/mol]
278.15 K	879.5	–
283.15 K	875.22	–
285.01 K	–	338
288.15 K	870.94	–
288.16 K	–	339.38
293.15 K	866.65	341.09
298.15 K	862.36	343.12
303.15 K	858.07	–
303.16 K	–	345.31
308.15 K	853.76	347.48
313.15 K	849.46	349.66
318.15 K	845.14	–
318.16 K	–	351.96
323.15 K	840.81	354.35
328.14 K	–	356.9
328.15 K	836.47	–
333.15 K	832.12	358.95
338.15 K	827.76	361.55
343.15 K	823.39	–
343.16 K	–	363.7
343.78 K	–	364.29
348.15 K	819	–
353.15 K	814.59	–
358.15 K	810.17	–

[1]
Conditions	speed of sound [m/s]
292.9 K, 101320 kPa	1668.8
292.91 K, 45590 kPa	1484.7
292.91 K, 60790 kPa	1539.2
292.91 K, 75990 kPa	1590
292.91 K, 91180 kPa	1638.3
292.92 K, 15200 kPa	1359
292.92 K, 30390 kPa	1426.7
292.94 K, 100 kPa	1281.8
298.2 K, 45590 kPa	1468.7
298.2 K, 60790 kPa	1523.7
298.2 K, 75990 kPa	1575
298.2 K, 91180 kPa	1623.9
298.21 K, 30390 kPa	1407.9
298.21 K, 101320 kPa	1654.1
298.22 K, 100 kPa	1261.5
298.22 K, 15200 kPa	1340.8
303.13 K, 45590 kPa	1453.6
303.13 K, 60790 kPa	1509.1
303.13 K, 75990 kPa	1561.4
303.13 K, 91180 kPa	1610.1
303.13 K, 101320 kPa	1639.9
303.14 K, 15200 kPa	1324.2
303.14 K, 30390 kPa	1391.8
303.2 K, 100 kPa	1242.5
308.11 K, 15200 kPa	1307.5
308.11 K, 30390 kPa	1376.3
308.11 K, 45590 kPa	1438.7
308.11 K, 60790 kPa	1494.9
308.11 K, 75990 kPa	1547.2
308.11 K, 91180 kPa	1596.5
308.11 K, 101320 kPa	1627.7
308.17 K, 100 kPa	1223.6
313.09 K, 60800 kPa	1480.5
313.09 K, 91180 kPa	1582.8
313.1 K, 75990 kPa	1533
313.1 K, 101320 kPa	1614.8
313.11 K, 15200 kPa	1290.2
313.11 K, 30390 kPa	1360.2
313.11 K, 45590 kPa	1423.1
313.15 K, 100 kPa	1205
318.24 K, 30390 kPa	1343.9
318.26 K, 15200 kPa	1273
318.26 K, 45590 kPa	1407.4
318.26 K, 60800 kPa	1466
318.26 K, 75990 kPa	1519.4
318.26 K, 91180 kPa	1569.6
318.27 K, 101320 kPa	1601.6
318.32 K, 100 kPa	1185.7
